Measured values: patent US6727237B2, “Inhibitors of bacterial NAD synthetase” (priority 1998, dated 2004)

The molecules below were run against T1, bacterial NAD synthetase enzyme (Bacillus subtilis, UniProt P08164) (assay: biochemical). Settings: not given.
T1 sequence (P08164 2-272 limits assumed): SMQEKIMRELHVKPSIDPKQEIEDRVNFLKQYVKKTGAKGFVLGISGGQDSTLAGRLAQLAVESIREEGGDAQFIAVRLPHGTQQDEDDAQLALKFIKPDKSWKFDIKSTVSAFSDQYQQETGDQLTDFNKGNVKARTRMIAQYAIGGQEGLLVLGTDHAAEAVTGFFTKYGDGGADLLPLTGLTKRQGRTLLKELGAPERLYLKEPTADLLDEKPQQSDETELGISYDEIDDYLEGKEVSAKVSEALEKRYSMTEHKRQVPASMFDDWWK
Format: biochemical

Row | Structure (SMILES) | IC50 [µM] | inhibition at 200 µM [%] | inhibition at 100 µM [%] | inhibition at 50 µM [%]
1 | C[N+](C)(C)c1ccc(CC(=O)OCCCCCCCCOc2ccccc2C=CC(=O)c2ccccc2)cc1 [Compound 1086] | 27.5 | 81 | – | –
2 | C[N+](C)(C)c1ccc(CC(=O)OCCCCCCCCCn2ccc3ccccc32)cc1 [Compound 982] | 60 | 93.7 | – | –
3 | C[N+](C)(C)c1cccc(C(=O)OCCCCCCCc2cc3cc(Oc4ccccc4)ccc3[nH]2)c1 [Compound 872] | 50 | – | 98.3 | –
4 | COC(=O)c1cc2ccccc2n1CCCCCCOC(=O)Cc1ccc([N+](C)(C)C)cc1 [Compound 983] | 25 | – | – | 92.5
5 | CC(C)c1ccc2[nH]c(CCCCCCCOC(=O)c3cccc([N+](C)(C)C)c3)cc2c1 [Compound 875] | 45 | – | 93.6 | –
6 | C[N+](C)(C)c1ccc(CC(=O)OCCCCCCCCOc2cccc(OC(=O)c3ccccc3)c2)cc1 [Compound 1079] | 36.2 | 97 | – | –
7 | COC(=O)c1cc2ccccc2n1CCCCCCCCCOC(=O)c1ccc[n+](C)c1 [Compound 974] | 35 | – | 88.2 | –
8 | COC(=O)c1cc2cc(OCc3ccccc3)ccc2n1CCCCCCCOC(=O)c1ccc(C[N+](C)(C)C)cc1 [Compound 1097] | 63.7 | 98 | – | –
9 | C[N+](C)(C)c1cccc(C(=O)OCCCCCCCc2cc3ccc(C(F)(F)F)cc3[nH]2)c1 [Compound 869] | 40 | – | – | –
10 | C[n+]1cccc(CC(=O)OCCCCCCCc2cc3cc(C(=O)c4ccccc4)ccc3[nH]2)c1 [Compound 941] | 50 | – | 100 | –

Same assay, conditions: compound at 0.05 mM

Row | Structure (SMILES) | % Inhibition [%]
11 | COC(=O)c1cc2cc(OCc3ccccc3)ccc2n1CCCCCCCCCOC(=O)Cc1ccc(N(C)C)cc1 [Compound 966] | 8.25
12 | O=C(OCCCCCCCn1ccc2ccccc21)c1cccnc1 [Compound 944] | 2.06

Same assay, conditions: compound at 0.1 mM (Table 314)

Row | Structure (SMILES) | % Inhibition [%]
13 | COC(=O)c1cc2cc(OCc3ccccc3)ccc2n1CCCCCCCCOC(=O)Cc1ccc([N+](C)(C)C)cc1 [Compound 989] | 54.83
14 | COC(=O)c1cc2cc(OCc3ccccc3)ccc2n1CCCCCCCCOC(=O)Cc1ccc(N(C)C)cc1 [Compound 965] | 8.48
15 | COc1ccc2[nH]c(CCCCCCC[n+]3ccccc3)cc2c1 [Compound 376] | 37.32
16 | CN(C)c1ccc(CC(=O)OCCCCCn2ccc3cc([N+](=O)[O-])ccc32)cc1 [Compound 849] | 90.92
17 | FC(F)(F)c1ccc2[nH]c(CCCCCCC[n+]3cccc4ccccc43)cc2c1 [Compound 472] | 12.76
18 | C[N+](C)(C)c1cccc(C(=O)OCCCCCCCc2cc3cc(C(=O)c4ccccc4)ccc3[nH]2)c1 [Compound 881] | 90.89
19 | COC(=O)c1ccc2[nH]c(CCCC[n+]3cccc4ccccc43)cc2c1 [Compound 487] | 9.88
20 | c1ccc(C(c2ccccc2)(c2ccccc2)c2ccc3[nH]c(CCC[n+]4ccccc4)cc3c2)cc1 [Compound 336] | 18.02
21 | Cc1ccc2[nH]c(CCC[n+]3cccc4ccccc43)cc2c1 [Compound 402] | 4.71

Same assay, conditions: compound at 0.2 mM (Table 312A)

Row | Structure (SMILES) | % Inhibition [%]
22 | Fc1cc(F)c2[nH]c(CCCC[n+]3ccc4ccccc4c3)cc2c1 [Compound 517] | 34.72
23 | COC(=O)c1ccc2[nH]c(CCCCCCC[n+]3cccc4ccccc43)cc2c1 [Compound 490] | 2.96
24 | c1ccc2c[n+](CCCCc3cc4ccccc4[nH]3)ccc2c1 [Compound 499] | 25.59
25 | c1ccc2c[n+](CCCCCCCc3cc4ccccc4[nH]3)ccc2c1 [Compound 502] | 44.08
26 | COc1ccc2c(ccn2CCCCOC(=O)c2ccc[n+](C)c2)c1 [Compound 760] | 2.28
27 | COC(=O)c1ccc2[nH]c(CCCCCC[n+]3cccc4ccccc43)cc2c1 [Compound 489] | 5.87
28 | FC(F)(F)c1ccc2cc(CCCCCCCC[n+]3ccccc3)[nH]c2c1 [Compound 293] | 87.66
29 | c1cc[n+](CCCCCCCCc2cc3ccccc3[nH]2)cc1 [Compound 287] | 16.01
30 | O=C(O)c1ccc2[nH]c(CCC[n+]3ccccc3)cc2c1 [Compound 384] | 4.10
31 | CC(=O)c1ccc2[nH]c(CCC[n+]3ccc4ccccc4c3)cc2c1 [Compound 582] | 6.13
32 | O=[N+]([O-])c1ccc2[nH]c(CCCCCCC[n+]3ccccc3)cc2c1 [Compound 334] | 41.67
33 | c1ccc(-c2ccc3[nH]c(CCCCCC[n+]4cccc5ccccc54)cc3c2)cc1 [Compound 435] | 17.24
34 | O=[N+]([O-])c1cc([N+](=O)[O-])c2[nH]c(CCCC[n+]3ccccc3)cc2c1 [Compound 307] | 4.40
35 | O=[N+]([O-])c1ccc2[nH]c(CCCC[n+]3ccccc3)cc2c1 [Compound 712] | 12.59
36 | CC(C)c1ccc2[nH]c(CCCCCCC[n+]3cccc4ccccc43)cc2c1 [Compound 430] | 1.20
37 | CCCCc1ccc2[nH]c(CCCCCCCC[n+]3cccc4ccccc43)cc2c1 [Compound 425] | 19.12

Row | Structure (SMILES) | % Inhibition [%]
38 | CCCCc1ccc2[nH]c(CCC[n+]3ccc4ccccc4c3)cc2c1 [Compound 528] | 65.81
39 | O=[N+]([O-])c1cc([N+](=O)[O-])c2[nH]c(CCCC[n+]3ccc4ccccc4c3)cc2c1 [Compound 523] | 18.12
40 | O=C(c1ccccc1)c1ccc2[nH]c(CCCCCCCC[n+]3cccc4ccccc43)cc2c1 [Compound 467] | 15.08
41 | Cc1ccc2[nH]c(CCCCCCCC[n+]3cccc4ccccc43)cc2c1 [Compound 407] | 24.14
42 | c1ccc(C(c2ccccc2)(c2ccccc2)c2ccc3[nH]c(CCCCCCC[n+]4cccc5ccccc54)cc3c2)cc1 [Compound 448] | 2.92
43 | O=[N+]([O-])c1cc([N+](=O)[O-])c2[nH]c(CCC[n+]3ccc4ccccc4c3)cc2c1 [Compound 522] | 35.74
44 | CC(=O)c1ccc2[nH]c(CCC[n+]3cccc4ccccc43)cc2c1 [Compound 474] | 2.45
45 | c1ccc(-c2ccc3[nH]c(CCCCCCC[n+]4cccc5ccccc54)cc3c2)cc1 [Compound 436] | 11.57
46 | Fc1cc(F)c2[nH]c(CCCCCCCC[n+]3cccc4ccccc43)cc2c1 [Compound 413] | 4.76
47 | CC(C)c1ccc2[nH]c(CCC[n+]3ccc4ccccc4c3)cc2c1 [Compound 534] | 26.99
48 | O=C(O)c1ccc2[nH]c(CCCCC[n+]3cccc4ccccc43)cc2c1 [Compound 494] | 17.44
49 | c1ccc(-c2ccc3[nH]c(CCCCCCC[n+]4ccc5ccccc5c4)cc3c2)cc1 [Compound 544] | 19.66
50 | COc1ccc2[nH]c(CCCCCC[n+]3ccc4ccccc4c3)cc2c1 [Compound 591] | 18.59
51 | Fc1cc(F)c2[nH]c(CCCC[n+]3ccccc3)cc2c1 [Compound 301] | 6.12
52 | c1ccc(C(c2ccccc2)(c2ccccc2)c2ccc3[nH]c(CCCCCC[n+]4ccc5ccccc5c4)cc3c2)cc1 [Compound 555] | 30.89

Same assay, conditions: compound at 0.2 mM (Table 312B)

Row | Structure (SMILES) | % Inhibition [%]
53 | C[N+](C)(C)c1ccc(CC(=O)OCCCCCCCCOc2ccccc2N2CCOCC2)cc1 [Compound 1093] | 66
54 | C[N+](C)(C)c1ccc(CC(=O)OCCCCCCCCOc2cccc(N3CCOCC3)c2)cc1 [Compound 1092] | 60
55 | CC(=O)c1cccc(OCCCCCCCCOC(=O)c2ccc[n+](C)c2)c1 [compound 1069] | 36
56 | CN(C)c1ccc(CC(=O)OCCCCCCCCOc2cccc(N3CCOCC3)c2)cc1 [Compound 1045] | 14
57 | C[N+](C)(C)c1ccc(CC(=O)OCCCCCCCCOc2ccc(C(=O)c3ccccc3)cc2)cc1 [Compound 1088] | 100
58 | O=C(OCCCCCCCCOc1cccc(N2CCOCC2)c1)c1cccnc1 [Compound 1018] | 17
59 | C[n+]1cccc(C(=O)OCCCCCCCCOc2ccccc2C(=O)Nc2ccccc2)c1 [compound 3054] | 86
60 | CC(=O)C=Cc1ccc(OCCCCCCCCOC(=O)c2ccc[n+](C)c2)cc1 [compound 1061] | 61
61 | NC(=O)c1ccc(OCCCCCCCCOC(=O)c2cccnc2)cc1 [Compound 1014] | 14
62 | C[n+]1cccc(C(=O)OCCCCCCCCOc2ccc([N+](=O)[O-])cc2)c1 [compound 1053] | 72
63 | O=C(OCCCCCCCCOc1ccccc1N1CCOCC1)c1cccnc1 [Compound 1020] | 8

Same assay, conditions: compound at 0.25 mM

Row | Structure (SMILES) | % Inhibition [%]
64 | C[n+]1ccc(C(=O)OCCCCCCCCc2cc3cc(C(=O)c4ccccc4)ccc3[nH]2)cc1 [Compound 912] | 27.6
65 | C[N+](C)(C)c1ccc(C(=O)OCCCCCCCCc2cc3ccc(C(F)(F)F)cc3[nH]2)cc1 [Compound 885] | 98.0
66 | CC(=O)c1ccc2[nH]c(CCCCOC(=O)Cc3ccc[n+](C)c3)cc2c1 [Compound 937] | 88.8
67 | CC(=O)c1ccc2[nH]c(CCCCCCCOC(=O)Cc3ccc[n+](C)c3)cc2c1 [Compound 938] | 98.8
68 | CC(C)c1ccc2[nH]c(CCCCOC(=O)c3ccc[n+](C)c3)cc2c1 [Compound 919] | 90.2
69 | C[n+]1ccc(C(=O)OCCCCc2cc3cc(C(=O)c4ccccc4)ccc3[nH]2)cc1 [Compound 910] | 88.5
70 | C[N+](C)(C)c1cccc(C(=O)OCCCCc2cc3cc(C(=O)c4ccccc4)ccc3[nH]2)c1 [Compound 880] | 96.7
71 | C[n+]1ccc(C(=O)OCCCCc2cc3cc(Oc4ccccc4)ccc3[nH]2)cc1 [Compound 901] | 32.8
72 | C[n+]1cccc(C(=O)OCCCCCCCCc2cc3ccc(C(F)(F)F)cc3[nH]2)c1 [Compound 915] | 95.7

Same assay, conditions: lead compounds (Table 318A); read-out: IC 50

Row | Structure (SMILES) | IC50 [µM]
73 | CN(C)c1ccc(CC(=O)OCCCCCn2ccc3cc([N+](=O)[O-])ccc32)cc1 [Compound 849] | 70
